Measured values reported in patent publication US11840686B2, “Modulation of prekallikrein (PKK) expression” (Ionis Pharmaceuticals, Inc., priority 2013, dated 2023).
Strand notation (5' to 3'): a small letter for the sugar, then the base; units joined by * are phosphorothioate-linked, units joined directly phosphodiester-linked; [ ] holds rarer units or linkages, { } end groups; capitals alone tell only the bases. e = 2'-O-(2-methoxyethyl) (MOE); k = constrained ethyl (cEt); [5mC] = 5-methylcytosine; d = 2'-deoxy (DNA)

These substances were tested on human PKK mRNA (assay: Antisense inhibition of human PKK mRNA in HepaRG cells, 1,000 nM, MOE/deoxy/cEt oligonucleotides (Example 3)). Conditions: HepaRG cells, 1,000 nM antisense oligonucleotide, Table 29.
Type: cell-based
Summary of the method: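 Readout is percent PKK mRNA reduction against untreated controls, by real-time PCR (RTS3454) adjusted for total RNA via RIBOGREEN. Oligonucleotides, phosphorothioate gapmers of 16 nucleosides with cEt, MOE and deoxy sugars, were delivered at 1,000 nM by electroporation to 20,000 HepaRG cells/well for roughly 24 h.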

Substance	% inhibition
548536 (antisense eT*e[5mC]*kT*d[5mC]*dA*dA*dT*d[5mC]*d[5mC]*d[5mC]*dA*dA*d[5mC]*k[5mC]*k[5mC]*e[5mC]) [compound 548536]	0%

Same assay, conditions: HepaRG cells, electroporation with 1,000 nM antisense oligonucleotide, approx. 24 hours, PKK mRNA by RT-PCR (RTS3454), relative to untreated control cells; Table 25 experiment

Substance	% inhibition
548165 (e[5mC]*eG*kA*d[5mC]*d[5mC]*dT*d[5mC]*dG*d[5mC]*dA*dT*dT*dG*kT*k[5mC]*eA; antisense) [compound 548165]	53%
548169 (eG*eT*kT*dG*d[5mC]*dG*dA*d[5mC]*d[5mC]*dT*d[5mC]*dG*d[5mC]*kA*kT*eT; antisense) [compound 548169]	7%

Same assay, conditions: HepaRG cells, electroporation with 1,000 nM antisense oligonucleotide, approx. 24 hours, PKK mRNA by RT-PCR (RTS3454), relative to untreated control cells; Table 26 experiment

Substance	% inhibition
548279 (antisense e[5mC]*eA*k[5mC]*d[5mC]*dT*dA*dG*dA*dA*d[5mC]*dT*dA*dT*k[5mC]*k[5mC]*eA) [compound 548279]	39%
548302 (eG*e[5mC]*k[5mC]*dA*dT*dT*dT*dT*dA*dT*d[5mC]*d[5mC]*d[5mC]*kT*kG*eA; antisense) [compound 548302]	71%

Same assay, conditions: HepaRG cells, electroporation with 1,000 nM antisense oligonucleotide, approximately 24 hours, primer probe set RTS3454, relative to untreated control cells; experiment of Table 23

Substance	% inhibition
547963 (antisense eG*eT*kT*d[5mC]*dA*dG*dG*dT*dA*dA*dA*dG*dT*kT*k[5mC]*eT) [compound 547963]	22%
547991 (antisense eT*eA*k[5mC]*dA*dG*dT*d[5mC]*dT*dT*d[5mC]*dT*dG*dG*kG*kA*eG) [compound 547991]	0%
547931 (eG*eT*kG*dA*dT*dA*dG*dG*dT*dG*d[5mC]*dA*dG*kA*kT*eG; antisense) [compound 547931]	58%
547951 (eA*eG*kA*dT*dA*dT*dG*dG*dT*dG*dT*dT*dT*kT*k[5mC]*eT; antisense) [compound 547951]	25%
547960 (eT*eG*k[5mC]*dA*dG*dG*dT*dT*dA*dA*dA*dA*dG*kG*k[5mC]*eT; antisense) [compound 547960]	40%

Same assay, conditions: HepaRG cells, electroporation with 1,000 nM antisense oligonucleotide, approximately 24 hours, primer probe set RTS3454, relative to untreated control cells; experiment of Table 24

Substance	% inhibition
548008 (eT*e[5mC]*kT*d[5mC]*dA*dA*dA*dG*dA*dG*dT*dA*dA*k[5mC]*k[5mC]*eA; antisense) [compound 548008]	71%
548044 (eT*eG*kG*dT*dG*dA*dA*dT*dA*dA*dT*dA*dA*kT*k[5mC]*eT; antisense) [compound 548044]	12%
548040 (eG*eT*kG*dA*dG*dA*dA*dA*dG*dG*dT*dG*dT*kA*kT*e[5mC]; antisense) [compound 548040]	62%
548007 (e[5mC]*eT*k[5mC]*dA*dA*dA*dG*dA*dG*dT*dA*dA*d[5mC]*k[5mC]*kA*eG; antisense) [compound 548007]	70%

Same assay, conditions: PKK mRNA, HepaRG cells, 1,000 nM antisense oligonucleotide; Table 31

Substance	% inhibition
548646 (antisense e[5mC]*eG*kT*dT*dT*d[5mC]*d[5mC]*d[5mC]*dT*d[5mC]*dA*dA*d[5mC]*kT*k[5mC]*e[5mC]) [compound 548646]	24%

Same assay, conditions: Table 19; HepaRG cells, electroporation with 1,000 nM antisense oligonucleotide, approximately 24 hours; PKK mRNA by RT-PCR (RTS3454), relative to untreated control cells

Substance	% inhibition
548076 (e[5mC]*eA*k[5mC]*d[5mC]*dT*dT*dT*d[5mC]*dT*d[5mC]*d[5mC]*dT*dT*k[5mC]*kG*eA; antisense) [compound 548076]	26%
548115 (antisense e[5mC]*eA*kT*dG*d[5mC]*dT*dG*dG*dT*dG*dA*d[5mC]*dT*kG*k[5mC]*eA) [compound 548115]	76%
548086 (antisense e[5mC]*eT*kA*dA*dG*dG*dG*dA*d[5mC]*d[5mC]*dA*d[5mC]*d[5mC]*kT*kG*eA) [compound 548086]	36%
548085 (antisense eT*eA*kA*dG*dG*dG*dA*d[5mC]*d[5mC]*dA*d[5mC]*d[5mC]*dT*kG*kA*eA) [compound 548085]	8%
548108 (antisense eG*eA*kG*d[5mC]*dT*dT*dT*dT*d[5mC]*d[5mC]*dA*dT*d[5mC]*kA*k[5mC]*eT) [compound 548108]	61%
548078 (eT*e[5mC]*kT*dT*d[5mC]*dA*dT*dT*dT*dG*dT*dT*dA*k[5mC]*k[5mC]*eA; antisense) [compound 548078]	36%
548124 (antisense eT*eA*kG*dA*d[5mC]*dT*d[5mC]*dT*dG*dG*dA*d[5mC]*dT*kG*k[5mC]*eT) [compound 548124]	51%

Same assay, conditions: Table 21 experiment; HepaRG cells, electroporation with 1,000 nM antisense oligonucleotide, approx. 24 hours; PKK mRNA by RT-PCR (RTS3454), relative to untreated control cells

Substance	% inhibition
547810 (e[5mC]*e[5mC]*kT*d[5mC]*dA*dT*d[5mC]*dT*dG*dG*d[5mC]*dA*dG*kT*kA*eT; antisense) [compound 547810]	60%
547795 (antisense eA*e[5mC]*k[5mC]*dT*d[5mC]*dT*dG*dA*dA*dG*dA*dA*dG*kG*k[5mC]*eG) [compound 547795]	66%
547841 (antisense e[5mC]*eA*k[5mC]*dA*dT*dT*dG*d[5mC]*dT*dT*d[5mC]*dA*dA*kG*kG*eA) [compound 547841]	42%
547819 (e[5mC]*eA*kT*dT*dG*dA*dT*dT*dG*dA*dA*d[5mC]*dT*kT*kG*e[5mC]; antisense) [compound 547819]	11%
547792 (antisense eT*e[5mC]*k[5mC]*dA*d[5mC]*dA*dG*dG*dA*dA*dA*d[5mC]*dT*kG*kT*eA) [compound 547792]	31%
547765 (antisense eA*eG*kG*dT*dG*dA*dG*dT*d[5mC]*dT*d[5mC]*dT*dT*kG*kT*e[5mC]) [compound 547765]	20%
547817 (eT*eG*kA*dA*d[5mC]*dT*dT*dG*d[5mC]*dT*dG*dG*dA*kA*kG*eA; antisense) [compound 547817]	18%
547757 (antisense eG*eA*kG*dT*d[5mC]*dT*d[5mC]*dT*dT*dG*dT*d[5mC]*dA*k[5mC]*kT*eT) [compound 547757]	69%
547820 (eT*e[5mC]*kA*dT*dT*dG*dA*dT*dT*dG*dA*dA*d[5mC]*kT*kT*eG; antisense) [compound 547820]	0%
547785 (antisense eG*eT*kT*dG*d[5mC]*dT*dT*dG*d[5mC]*dT*dT*dG*dA*kA*kT*eA) [compound 547785]	48%
547773 (antisense eT*e[5mC]*kT*dT*dG*dG*dA*dG*dG*dT*dG*dA*dG*kT*k[5mC]*eT) [compound 547773]	47%

Same assay, conditions: Table 27; HepaRG cells, 1,000 nM antisense oligonucleotide; human PKK mRNA

Substance	% inhibition
548369 (eG*eT*kT*dG*dG*dG*dA*dT*dG*d[5mC]*dG*dA*d[5mC]*kT*k[5mC]*eT; antisense) [compound 548369]	50%
548379 (eA*eT*k[5mC]*dG*dA*dA*d[5mC]*dT*d[5mC]*dT*dG*d[5mC]*dT*kT*kG*eA; antisense) [compound 548379]	44%
548354 (antisense eA*eT*kG*dT*d[5mC]*d[5mC]*d[5mC]*d[5mC]*dA*dG*dT*dG*dG*kA*kA*eG) [compound 548354]	41%
548371 (e[5mC]*eG*kA*dT*dG*dA*dG*dT*dT*dG*dG*dG*d[5mC]*kA*kG*eG; antisense) [compound 548371]	57%
548334 (antisense eG*e[5mC]*kT*d[5mC]*dA*d[5mC]*dT*dA*dT*dA*dG*dG*d[5mC]*k[5mC]*k[5mC]*e[5mC]) [compound 548334]	69%
548378 (eG*e[5mC]*kA*dA*dG*dA*dT*dG*d[5mC]*dA*dT*dG*d[5mC]*kA*kG*e[5mC]; antisense) [compound 548378]	49%

Same assay, conditions: Table 28; HepaRG cells, 1,000 nM antisense oligonucleotide; human PKK mRNA

Substance	% inhibition
548478 (eG*eA*kG*d[5mC]*d[5mC]*dA*dT*d[5mC]*d[5mC]*dA*dG*dG*dG*kT*kG*e[5mC]; antisense) [compound 548478]	53%
548517 (antisense e[5mC]*eG*kG*dA*d[5mC]*dA*dA*dG*d[5mC]*d[5mC]*dT*dT*dA*k[5mC]*kA*eG) [compound 548517]	43%
548464 (eG*eT*k[5mC]*d[5mC]*dT*dA*dT*dA*dA*d[5mC]*dT*dA*dT*kA*kT*e[5mC]; antisense) [compound 548464]	0%
548533 (antisense eG*eA*kG*dG*dT*dG*dG*dT*dT*dG*dG*dA*dG*k[5mC]*kT*eA) [compound 548533]	9%
548516 (antisense e[5mC]*eT*kT*dG*d[5mC]*d[5mC]*dT*dA*dT*dT*d[5mC]*dA*d[5mC]*k[5mC]*k[5mC]*e[5mC]) [compound 548516]	49%
548510 (antisense eT*eT*kA*dG*d[5mC]*d[5mC]*dA*d[5mC]*dT*d[5mC]*d[5mC]*dT*d[5mC]*kT*kT*eG) [compound 548510]	30%

Same assay, conditions: Table 30; human PKK mRNA, HepaRG cells, 1,000 nM antisense oligonucleotide

Substance	% inhibition
548452 (eT*eA*kT*dA*dT*d[5mC]*dA*d[5mC]*dT*dG*dT*dA*d[5mC]*k[5mC]*kT*eA; antisense) [compound 548452]	65%
548392 (eG*eT*kA*dG*dA*dG*d[5mC]*dA*dT*dG*dG*dA*dG*k[5mC]*kG*eA; antisense) [compound 548392]	31%
548390 (eG*e[5mC]*kT*dG*dA*dG*dT*dG*dT*dG*dA*d[5mC]*dT*kT*kA*eA; antisense) [compound 548390]	43%
548387 (eT*eG*kA*dA*dG*dG*dG*d[5mC]*dG*dA*dG*dG*d[5mC]*kG*k[5mC]*eA; antisense) [compound 548387]	22%
548396 (eT*eA*kA*dT*dG*dA*dG*dT*dG*dG*dG*dT*dT*kA*kG*eG; antisense) [compound 548396]	0%
